Assay results reported in ChEMBL document CHEMBL3098108, “Design, synthesis and evaluation of dual pharmacology β2-adrenoceptor agonists and PDE4 inhibitors” (Bioorg Med Chem Lett, 2014).
Calls of active or inactive are those of the source. The rule behind the calls is not given here.

Key:
[1] = target: Beta-2 adrenergic receptor (Cavia porcellus, UniProt Q8K4Z4); assay: Agonist activity at guinea pig trachea beta2-adrenergic receptor assessed as relaxation of histamine-induced tracheal ring contraction
[2] = target: 3',5'-cyclic-AMP phosphodiesterase 4B (Homo sapiens, UniProt Q07343); assay: Inhibition of human recombinant PDE4B2 assessed as inhibition of cAMP hydrolysis by colorimetric assay
[3] = target: Beta-2 adrenergic receptor (Cavia porcellus) (UniProt Q8K4Z4); assay: Agonist activity at guinea pig trachea beta2-adrenergic receptor assessed as relaxation of histamine-induced tracheal ring contraction in presence of ICI-118551
Sequence of Beta-2 adrenergic receptor (Cavia porcellus) (Q8K4Z4 whole entry, looked up): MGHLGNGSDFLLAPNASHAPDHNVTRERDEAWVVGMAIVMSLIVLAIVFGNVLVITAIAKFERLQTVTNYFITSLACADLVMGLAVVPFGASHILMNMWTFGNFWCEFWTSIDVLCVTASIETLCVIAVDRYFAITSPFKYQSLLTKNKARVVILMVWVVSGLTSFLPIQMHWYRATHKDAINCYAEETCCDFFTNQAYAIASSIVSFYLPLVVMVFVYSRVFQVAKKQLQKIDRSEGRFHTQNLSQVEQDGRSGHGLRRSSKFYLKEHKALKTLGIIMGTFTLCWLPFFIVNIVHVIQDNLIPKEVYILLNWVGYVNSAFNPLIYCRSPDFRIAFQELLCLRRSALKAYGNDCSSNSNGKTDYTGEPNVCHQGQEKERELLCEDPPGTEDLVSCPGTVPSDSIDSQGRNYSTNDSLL

Sequence of Beta-2 adrenergic receptor (Q8K4Z4 whole entry): as the sequence (Q8K4Z4 whole entry, looked up) above
Sequence of 3',5'-cyclic-AMP phosphodiesterase 4B (Q07343 whole entry): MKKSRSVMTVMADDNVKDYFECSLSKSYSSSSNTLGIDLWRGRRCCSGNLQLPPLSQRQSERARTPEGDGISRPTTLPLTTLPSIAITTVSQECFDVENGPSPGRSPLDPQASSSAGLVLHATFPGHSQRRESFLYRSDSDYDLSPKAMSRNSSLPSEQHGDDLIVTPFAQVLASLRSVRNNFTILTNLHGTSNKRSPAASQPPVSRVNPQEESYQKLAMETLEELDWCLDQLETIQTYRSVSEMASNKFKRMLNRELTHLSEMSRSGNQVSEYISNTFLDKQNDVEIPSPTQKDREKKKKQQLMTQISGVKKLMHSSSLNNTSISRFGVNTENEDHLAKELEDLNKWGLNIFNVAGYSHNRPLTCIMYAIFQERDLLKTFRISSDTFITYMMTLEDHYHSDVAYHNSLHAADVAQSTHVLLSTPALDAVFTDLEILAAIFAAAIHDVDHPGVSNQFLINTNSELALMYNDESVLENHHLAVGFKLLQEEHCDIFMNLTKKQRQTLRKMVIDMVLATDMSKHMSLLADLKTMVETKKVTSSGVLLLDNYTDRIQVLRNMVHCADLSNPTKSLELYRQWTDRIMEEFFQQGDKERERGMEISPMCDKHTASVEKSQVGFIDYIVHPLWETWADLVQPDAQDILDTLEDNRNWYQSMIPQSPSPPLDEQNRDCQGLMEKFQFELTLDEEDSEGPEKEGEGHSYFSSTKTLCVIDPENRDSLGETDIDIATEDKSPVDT

Row | EC50 [1] | IC50 [2] | Activity [3] | Compound
1 | 5.02 nM | 104 nM |  | COc1ccc(C2=NN(CCCCCCOc3ccc(CC(C)NCC(O)c4ccc(O)c(NC=O)c4)cc3)C(=O)C3CCCCC23)cc1OC (racemic)
2 | 12.6 nM | 118 nM |  | COc1ccc(C2=NN(CCCCCOc3ccc(CC(C)NCC(O)c4ccc(O)c(NC=O)c4)cc3)C(=O)C3CCCCC23)cc1OC (centres undefined)
3 | 1.05 nM | 92 nM | Active | COc1ccc(C2=NN(CCCCCCOc3ccc(C[C@@H](C)NC[C@H](O)c4ccc(O)c(NC=O)c4)cc3)C(=O)C3CCCCC23)cc1OC (some centres undefined)
4 | 10.3 nM | 117 nM |  | COc1ccc(C2=NN(CCCCOc3ccc(CC(C)NCC(O)c4ccc(O)c(NC=O)c4)cc3)C(=O)C3CCCCC23)cc1OC (centres undefined)
